For 2 compounds, log10cfu, MIC and Activity results are on record in ChEMBL document CHEMBL1671736, “In vivo efficacy of anidulafungin against mature Candida albicans biofilms in a novel rat model of catheter-associated Candidiasis” (2010).

≈ marks a conversion by molar mass, not a printed value. Calls of active or inactive are those of the source. The rule behind the calls is not given here. *1 amine or outer side, *2 acyl side, *3 side chain or, on linkers, in order; H or OH if unused. Where a SMILES comes first, the peptide text is derived from it. Bridges are numbered along the chain shown (N, C = ends). [ ]: non-standard residue; d: D form. The star is where a group is joined. pTerphenylCO(4''-OnC5H11) = CCCCCOc1ccc(-c2ccc(-c3ccc(C(=O)*)cc3)cc2)cc1; Orn(4R-OH,5R-OH) = O=C([C@H](C[C@@H](O)[C@@H](O)N[*:3])N[*:1])[*:2]; hTyr(3S-OH,4S-OH) = N[C@H](C(=O)O)[C@H](O)[C@@H](O)c1ccc(O)cc1; Pro(3S-OH,4S-Me) = C[C@H]1CN[C@H](C(=O)O)[C@H]1O; Hyp = O=C(O)[C@@H]1C[C@@H](O)CN1

In assay [1] the test system is Candida albicans. Kind of assay: Antimicrobial activity against Candida albicans SC5314 biofilms infected in Sprague-Dawley rat implanted subcutaneously with catheter fragments challenged Candida cells assessed as […] at 10 mg/kg, ip qd for 7 days (Rvb=2.92 +/- 0.34 log10 CFU/catheter fragment). The assay is classed as functional. The conditions noted are these: […].

The test system of assay [2] is Candida albicans. The assay can be described thus: Antimicrobial activity against Candida albicans SC5314 assessed as reduction of biofilm metabolic activity in in vitro catheter-associated rat model by XTT assay. The assay is classed as functional. On the technique in general: Formazan colour is commonly taken as a measure of viable cells.
Assay [3] has as its system Candida albicans. The assay can be described thus: Antimicrobial activity against Candida albicans SC5314 assessed as reduction of biofilm metabolic activity in in vitro catheter-associated rat model at 64 ug/ml by XTT assay. The assay is classed as functional, organism-based.
Assay [4] has as its system Candida albicans. Kind of assay: Antimicrobial activity against Candida albicans SC5314 biofilms infected in Sprague-Dawley rat implanted subcutaneously with catheter fragments challenged Candida cells assessed as […] at 125 mg/kg, ip qd for 7 days (Rvb=2.92 +/- 0.34 log10 CFU/catheter fragment). The assay is classed as functional. The conditions noted are these: […].

As for `CCCCCOc1ccc(-c2ccc(-c3ccc(C(=O)N[C@H]4C[C@@H](O)[C@@H](O)NC(=O)[C@@H]5[C@@H](O)[C@@H](C)CN5C(=O)[C@H]([C@@H](C)O)NC(=O)[C@H]([C@H](O)[C@@H](O)c5ccc(O)cc5)NC(=O)[C@@H]5C[C@@H](O)CN5C(=O)[C@H]([C@@H](C)O)NC4=O)cc3)cc2)cc1` [ANIDULAFUNGIN] ({pTerphenylCO(4''-OnC5H11)}-[Orn(4R-OH,5R-OH)]T[Hyp][hTyr(3S-OH,4S-OH)]T[Pro(3S-OH,4S-Me)]; lactam 1-C), the log10cfu in assay [1] came to 2.14. Further, the MIC in assay [2] turned out to be 0.25 µg/mL (≈ 0.219 µM).

Turning to `OC(Cn1cncn1)(Cn1cncn1)c1ccc(F)cc1F` [FLUCONAZOLE], in assay [3], the result was inactive. Further, the log10cfu in assay [4] came to 3.01.
